Assay [1] concerns Phospholipase C (PLC). Description: In vitro assay for inhibitors of Phospholipase C (PLC) from rat platelets. Type of assay: biochemical. From the text:
A. Protocol For In Vitro Assay For Inhibitors Of Phospholipase C (PLC)
The PLC employed in this screen is obtained by aggregation of purified rat platelets in the presence of CaCl2 and ADP. In the enzyme assay phosphatidylinositol having ^3 H -labeled arachidonate residues at R2 is employed as substrate. PLC acts by cleaving the phosphate ester bond yielding diglyceride as follows: [drawing 18]
Following completion of the reaction, the assay medium is acidified and extracted with hexane which takes up unreacted substrate and diglyceride. The hexane extract is passed over a short silica gel column which retains 99% of the phosphatidylinositol. The ^3 H-labeled diglyceride is not retained […]. The diglyceride is conveniently quantitated by liquid scintillation spectrometry.
The compounds were tested at 300 u in a buffer containing 0.06 mM unlabeled phosphatidylcholine (PC), 20-30,000 cpm of (CPC), 150 mM NaCl, 5 mM CaCl2 and 50 mM tris(hydroxymethyl)methylaminopropanesulfonic acid buffer, adjusted to pH 9.0 with 1N NaOH. The temperature of the buffer was maintained at a temperature of 37° C. The reaction was initiated by addition of the enzyme and it was terminated 10 minutes later by addition of 1 ml of 1N HCl.
Following acidification, the samples were extracted with 2 ml of isopropyl alcohol and 2 ml of hexane, vortexed and allowed to stand until the phases separate. […] and some unreacted substrate were taken up in the isopropanol-saturated hexane. The hexane phase of the extraction mixture was transferred to a short silica gel column which retains unreacted phosphatidylinositol, but not the 3H-diglyceride. The column effluent was collected directly in scintillation vials. The columns were washed once with additional 2 ml of hexane. The radiolabelled diglycerides were quantitated by liquid scintillation.

The target in assay [2] is T1, Phospholipase A2 (PLA2) (Rattus norvegicus, UniProt P14423).
T1 construct: obtained by aggregation of purified rat platelets; from tissue; host or cells: rat platelets (enzyme obtained by aggregation)
T1 sequence (P14423 22-146): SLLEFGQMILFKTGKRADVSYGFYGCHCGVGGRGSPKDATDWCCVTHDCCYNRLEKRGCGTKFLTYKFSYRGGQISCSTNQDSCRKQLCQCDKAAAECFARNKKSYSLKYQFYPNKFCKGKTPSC
Description: In vitro assay for inhibitors of Phospholipase A2 (PLA2) from rat platelets. Type of assay: biochemical. The source says: B. In Vitro Assay For Inhibitors of Phospholipase A2 Assayed at pH 7.0 (PLA2)
The PLA2 employed in this screen is obtained by aggregation of purified rat platelets. In the enzyme assay phosphatidylcholine having ^14 C-labeled palmitate residues at R1 and R2 is employed as substrate. PLA2 acts by cleaving the R2 fatty acid ester bond yielding free fatty acid and lysophosphatidyl choline as follows: [drawing 19]
Following completion of the reaction, the assay medium is acidified and extracted with hexane, which takes up unreacted substrate and free fatty acid product. The hexane extract is passed over a short silica column which retains 99% of the phosphatidyl choline. The ^14 C-labeled palmitic acid is not retained (90% recovery in eluate) and is collected directly in scintillation counting vials. The released palmitic acid is conveniently quantitated by liquid scintillation spectrometry.
The compounds were tested at 100 uM in a buffer containing 0.3 mM unlabeled phosphatidylcholine (PC), 20-30,000 cpm of ^14 C(CPC), […], 1 mM CaCl2 and 50 mM tris-HCl adjusted to pH 7.2 with 1N NaOH. […] The temperature of the buffer was maintained at a temperature of 37° C. The reaction was initiated by addition of the enzyme and it was terminated 30 minutes later by the addition of […] of 1N HCl.
Following acidification, the samples were extracted with 2 ml of 2-propanol and 2 ml of hexane, vortexed and allowed to stand until the phases separated. Free fatty acids (FFA) and some unreacted substrate were taken up in the isopropanol-saturated hexane. The hexane phase of the extraction mixture was transferred to a short silica gel column which retained […] but not the FFA. The column effluent was collected directly in scintillation vials. The columns were washed once with an additional 2 ml of hexane. The radio labeled FFA were quantitated by liquid scintillation spectrometry.

Assay [3] deals with leukotriene C4 -induced contraction of guinea pig peripheral strips. Briefly: SRS-A antagonists (SALTI): leukotriene C4-induced contraction of guinea pig peripheral lung strips. The settings on record: Cavia porcellus; 0.2 μM leukotriene C4-induced contraction; read-out: SALTI, I50 μM. How it is done: Protocol for SRS-A (Slow-reacting Substance of Anaphylaxis Antagonists (SALTI)
Peripheral strips of guinea pig lungs are prepared and hung in tissue baths (Metro #ME-5505, 10 ml) according to the published procedure (Pro. Nat'l. Acad. Sci., U.S.A. Volume 77, pp. 4354-4358, 1980). The strips are thoroughly rinsed in Assay Buffer and then connected with surgical silk thread to the support rods from the tissue baths. The rods are adjusted in the baths and the strips connected to the pressure transducers (Grass FT 103 or Gould UC-3). The tissue baths are aerated with 95% oxygen 5% carbon dioxide and maintained at 37° C. The Assay Buffer has been made as follows: For each liter of buffer the following are added to approximately 800 ml of water distilled in glass--6.87 g. NaCl, 0.4 g. KCl, […]. NaHCO3, 0.14 g. NaH2 PO4.H2 O, 0.21 g. MgSO4.7H2 O, and 2.0 g. D-glucose. Then a solution of 0.368 g. CaCl2.2H2 O in 100 ml glass-distilled water is slowly added to the buffer. Sufficient water is added to adjust the volume to one liter, and the solution is aerated with 95% oxygen--5% carbon dioxide. Usually 10 liters of buffer are used for an experiment with 4 tissues.
After the tissues have been repeatedly washed and allowed to equilibrate in the tissue bath, they are challenged with 1 μM histamine. After maximum contractions have been obtained, the tissues are washed, and allowed to relax back to baseline tension. This histamine challenge procedure is repeated at least 1 to 2 more times to obtain a repeatable control response. The average response to 1 μM histamine for each tissue is used to normalize all other challenges.
Responses of each tissue to a predetermined concentration of leukotriene are then obtained. Usually test compounds are examined initially at 30 μM on resting tension of the tissues without any added agonist or antagonist to determine if the compound has any possible intrinsic activity. The tissues are washed, and the test compound is added again. Leukotriene is added after the desired pre-incubation time. The intrinsic activity of the compounds, and their effect on leukotriene-induced contractions are then recorded.
The concentration required for 50% inhibition of 0.2 μM leukotriene C4 -induced contraction of guinea pig peripheral strips for representative compounds of the present invention is shown in Table 3.

Assay [4] has as its target T2, 5-lipoxygenase (Rattus norvegicus, UniProt P12527).
T2 construct: A suspension of rat neutrophils in buffer; endogenous in cells; host or cells: rat neutrophils (PMN)
T2 sequence (P12527 1-673): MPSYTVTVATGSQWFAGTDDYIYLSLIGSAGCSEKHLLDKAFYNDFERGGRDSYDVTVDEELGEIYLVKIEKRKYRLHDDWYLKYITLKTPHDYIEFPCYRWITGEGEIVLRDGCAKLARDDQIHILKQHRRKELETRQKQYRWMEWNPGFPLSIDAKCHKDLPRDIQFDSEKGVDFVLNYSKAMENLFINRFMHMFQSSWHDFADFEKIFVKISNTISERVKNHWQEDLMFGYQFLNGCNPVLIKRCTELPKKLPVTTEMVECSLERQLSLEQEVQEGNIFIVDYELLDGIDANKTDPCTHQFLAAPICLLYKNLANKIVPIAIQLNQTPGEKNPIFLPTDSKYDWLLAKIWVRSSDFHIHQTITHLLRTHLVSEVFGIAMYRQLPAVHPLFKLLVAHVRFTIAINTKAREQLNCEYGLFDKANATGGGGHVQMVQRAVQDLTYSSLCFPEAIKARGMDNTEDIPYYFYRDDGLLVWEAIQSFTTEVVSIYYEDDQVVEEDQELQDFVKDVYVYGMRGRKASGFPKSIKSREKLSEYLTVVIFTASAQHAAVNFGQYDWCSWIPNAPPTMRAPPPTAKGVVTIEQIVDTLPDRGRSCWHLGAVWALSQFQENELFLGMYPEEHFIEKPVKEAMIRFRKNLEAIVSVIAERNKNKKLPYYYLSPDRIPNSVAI
Briefly: Protocol for detecting inhibitors of the lipoxygenase pathway (5-HETE formation in rat neutrophils). Type of assay: cell-based. The settings on record: Formula III, n=1 compounds; read-out: LOX I50 (Table 5). The protocol: Protocol for Detecting Inhibitors of the Lipoxygenase Pathway
A suspension of rat neutrophils in buffer is incubated for 3 minutes at 30° C. with [^14 C]-arachidonic acid (AA) and Calcium Ionophore A23187. Citric acid (2M) is used to quench the reaction. Following the addition of a trace amount of (^3 H)-5-HETE together with an excess of unlabeled 5-HETE to each tube, the mixture is extracted with chloroform/methanol. The organic layer is washed with dilute acid and an aliquot is transferred to glass tubes and dried. The residue is dissolved in a small volume of chloroform and an aliquot is spotted on silica get TLC sheets, which are developed with an ethyl acetate/isooctane/water acetic acid solvent system. The 5-HETE spots are visualized with iodine, cut out and placed in scintillation vials for counting. After adjusting for the extraction efficiency, the amount (pmole) of [^14 C]-5-HETE in each of the tubes is quantitated. The net pmoles of 5-HETE are obtained by subtracting the pmoles of 5-HETE in the tubes containing […]. The ability of the test compounds to modulate the activity of this enzyme is determined by a decrease or increase in the net amount of 5-HETE produced.

Turning to `Cc1c(C=CC=CC(=O)O)c2ccccc2n1Cc1ccccc1` [Example 12, 5-(1-Benzyl-2-methylindol-3-yl)-2,4-Pentadienoic Acid], the IC50 in assay [1] (read-out: PLC, I50) is 40 µM; in assay [2] (pH 7.2, 37° C., read-out: PLA2, I50) it was 37 µM; in assay [3], 15 µM.
Regarding `CCOC(=O)C=Cc1c[nH]c2ccccc12` [Ethyl β-(indol-3-yl)acrylate, reference compound], in assay [1] (at level tested (300 u)), the “PLC activity class (Table 5)” value is reported as “I”. In addition, the “PLA2 activity class (Table 5)” value in assay [2] (at level tested (100 uM)) is given as “I”. Moreover, the IC50 in assay [4] was found to be 8 µM.

(Values after patent US4758586A, “Indolyl compounds and hyposensitivity use thereof” (USV Pharmaceutical Corp., priority 1986, dated 1988).)
